Experimental data reported in US10829796B2, “Bacteria identification and antimicrobial susceptibility test” (priority 2015, dated 2020).

Test system: bacteria in clinical bovine mastitis milk samples
Assay: Combined bacteria identification and antimicrobial susceptibility test (colour of wells, MIC) on clinical bovine mastitis milk samples
Type: cell-based
Description: Clinical bovine mastitis milk samples were collected by a vet clinic in South Island, New Zealand. Samples were stored in the freezer for several months and shipped frozen to the testing facility. In this Example, the term “clinical” means that dairy cows had clinical symptoms of an udder infection e.g. cow behaved unusual, milk clots, swollen udder among other typical symptoms. Testing was executed in microwell plate comprising of 24 wells (3×8 wells).
In addition, 20 ul of clinical mastitis sample was added to each well with a laboratory pipette.
(§1) Abbreviations • 1. 80 ul GC+10 ul Tell: 80 ul Giolitti Cantoni base broth+10 ul Tellurite solution (1%); • 2. 80 ul TSB/Esc/Fer Cit: 80 ul Tryptic soy broth containing 0.25% Esculin and 0.125% Ammonium Ferric Citrate; • 3. 80 ul TSB/Esc/Fer Cit+10 ul Genta: 80 ul Tryptic soy broth containing 0.25% Esculin and 0.125% Ammonium Ferric Citrate+10 ul of Gentamycin solution 10 mg/ml; • 4. 80 ul McC/PR25: 80 ul MacConkey broth (single strength) containing 0.0125% phenol red; and • 5. 80 ul TSB/PR25: 80 ul Tryptic soy broth containing 0.0125% phenol red. Bacteria Identification
Columns A to C and rows 1 and 2 were used for bacteria identification. A1: coagulase positive Staph; A2: Staphylococci; B1: Strep group D; B2: Strep group D; C1: general enrichment media (gram+ and gram-bacteria); C2: coliform bacteria.
Column A3 to A8: serial dilution of benzyl penicillin as potassium. Column B3 to B8: serial dilution of ceftiofur as hydrochloride. Column C3 to C8: serial dilution of cloxacillin as sodium. Antibiotic concentrations are listed as free form ranging between 4 ug/ml to 0.05 ug/ml.
Minimum inhibitory substance concentration (MIC) is here defined as the concentration if a colour change occurs between two wells (one well remains red with drug concentration 1, the other one yellow with drug concentration 2, whereas drug concentration 1 is larger than drug concentration 2) then the MIC is the value of drug concentration 1.
Table 21 indicates the microwell plate configuration #1; Drugs: Benzylpenicillin as potassium; Cloxacillin as sodium; Ceftiofur as hydrochloride; Drug concentration in each well (A3 to C8) is based on 80 μl composition+10 μl drug solution+20 μl clinical mastitis milk sample and equivalent to listed drug concentration in μg/ml; 20 ul of clinical bovine mastitis milk sample was added to each well (A1 to C8).
In addition, each well received one drop of clinical sample from a transfer pipette which was on average about 35 mg. This was determined through weighing the well plate prior and after the addition of clinical mastitis samples. This weight was then divided by 24.
as §1, with “•” for “Abbreviations •”, “red.” for “red. Bacteria Identification”
Columns A to C and rows 1 and 2 were used for bacteria identification. A1: coagulase positive Staph; A2: Staphylococci; B1: Strep Group D; B2: -; C1: general enrichment media (gram+ and gram-); C2: coliform bacteria.
Column A3 to A8: serial dilution of benzyl penicillin as potassium. Drug concentrations given as free form ranging between 4 ug/ml to 0.05 ug/ml. Column B3 to B8: serial dilution of ceftiofur as hydrochloride. Drug concentrations given as free form ranging between 4 ug/ml to 0.05 ug/ml. Column C3 to C8: serial dilution of cloxacillin as sodium. Drug concentrations given as free form ranging between 4 ug/ml to 0.05 ug/ml.

CC1(C)S[C@@H]2[C@H](NC(=O)Cc3ccccc3)C(=O)N2[C@H]1C(=O)O [benzyl penicillin]
Colour of media in each well (ID 5 to 8, T = 0 h (prior incubation, reference), plate configuration #2, drug 1 μg/ml): red | Colour of media in each well (ID 5 to 8, T = 0 h (prior incubation, reference), plate configuration #2, drug 2 μg/ml): red | Colour of media in each well (ID 5 to 8, T = 0 h (prior incubation, reference), plate configuration #2, drug 4 μg/ml): red | Colour of media in each well (ID 6, T = 23h, 37° C., plate configuration #2, drug 0.05 μg/ml (Table 31)): yellow | Colour of media in each well (ID 6, T = 23h, 37° C., plate configuration #2, drug 0.1 μg/ml (Table 31)): yellow | Colour of media in each well (ID 6, T = 23h, 37° C., plate configuration #2, drug 0.5 μg/ml (Table 31)): yellow | Colour of media in each well (ID 6, T = 23h, 37° C., plate configuration #2, drug 1 μg/ml (Table 31)): yellow | Colour of media in each well (ID 6, T = 23h, 37° C., plate configuration #2, drug 2 μg/ml (Table 31)): yellow | Colour of media in each well (ID 6, T = 23h, 37° C., plate configuration #2, drug 4 μg/ml (Table 31)): yellow | Colour of media in each well (ID 6, T~7 h, 37° C., plate configuration #2, Table 35, drug 0.05 μg/ml): yellow | Colour of media in each well (ID 6, T~7 h, 37° C., plate configuration #2, Table 35, drug 0.1 μg/ml): yellow | Colour of media in each well (ID 6, T~7 h, 37° C., plate configuration #2, Table 35, drug 0.5 μg/ml): yellow | Colour of media in each well (ID 6, T~7 h, 37° C., plate configuration #2, Table 35, drug 1 μg/ml): yellow | Colour of media in each well (ID 6, T~7 h, 37° C., plate configuration #2, Table 35, drug 2 μg/ml): yellow | Colour of media in each well (ID 6, T~7 h, 37° C., plate configuration #2, Table 35, drug 4 μg/ml): yellow | Colour of media in each well (ID 6, T~11 h, 37° C., plate configuration #2, Table 35, drug 0.05 μg/ml): yellow | Colour of media in each well (ID 6, T~11 h, 37° C., plate configuration #2, Table 35, drug 0.1 μg/ml): yellow | Colour of media in each well (ID 6, T~11 h, 37° C., plate configuration #2, Table 35, drug 0.5 μg/ml): yellow | Colour of media in each well (ID 6, T~11 h, 37° C., plate configuration #2, Table 35, drug 1 μg/ml): yellow | Colour of media in each well (ID 6, T~11 h, 37° C., plate configuration #2, Table 35, drug 2 μg/ml): yellow | Colour of media in each well (ID 6, T~11 h, 37° C., plate configuration #2, Table 35, drug 4 μg/ml): yellow | Colour of media in each well (ID 6, T~23 h, 37° C., plate configuration #2, Table 35, drug 0.05 μg/ml): yellow | Colour of media in each well (ID 6, T~23 h, 37° C., plate configuration #2, Table 35, drug 0.1 μg/ml): yellow | Colour of media in each well (ID 6, T~23 h, 37° C., plate configuration #2, Table 35, drug 0.5 μg/ml): yellow | Colour of media in each well (ID 6, T~23 h, 37° C., plate configuration #2, Table 35, drug 1 μg/ml): yellow | Colour of media in each well (ID 6, T~23 h, 37° C., plate configuration #2, Table 35, drug 2 μg/ml): yellow | Colour of media in each well (ID 6, T~23 h, 37° C., plate configuration #2, Table 35, drug 4 μg/ml): yellow | Colour of media in each well (ID 7, T = 23h, 37° C., plate configuration #2, drug 0.05 μg/ml): yellow | Colour of media in each well (ID 7, T = 23h, 37° C., plate configuration #2, drug 0.1 μg/ml): yellow | Colour of media in each well (ID 7, T = 23h, 37° C., plate configuration #2, drug 0.5 μg/ml): red | Colour of media in each well (ID 7, T = 23h, 37° C., plate configuration #2, drug 1 μg/ml): red | Colour of media in each well (ID 7, T = 23h, 37° C., plate configuration #2, drug 2 μg/ml): red | Colour of media in each well (ID 7, T = 23h, 37° C., plate configuration #2, drug 4 μg/ml): red | Colour of media in each well (ID 8, T = 23 h, 37° C., plate configuration #2, drug 0.05 μg/ml): red | Colour of media in each well (ID 8, T = 23 h, 37° C., plate configuration #2, drug 0.1 μg/ml): red | Colour of media in each well (ID 8, T = 23 h, 37° C., plate configuration #2, drug 0.5 μg/ml): red | Colour of media in each well (ID 8, T = 23 h, 37° C., plate configuration #2, drug 1 μg/ml): red | Colour of media in each well (ID 8, T = 23 h, 37° C., plate configuration #2, drug 2 μg/ml): red | Colour of media in each well (ID 8, T = 23 h, 37° C., plate configuration #2, drug 4 μg/ml): red | Colour of media in each well (Table 24, sample ID 2, 22 hours at 37° C., plate configuration #1, row 3 of serial dilution 4 ug/ml to 0.05 ug/ml): orange | Colour of media in each well (Table 24, sample ID 2, 22 hours at 37° C., plate configuration #1, row 4 of serial dilution 4 ug/ml to 0.05 ug/ml): orange | Colour of media in each well (Table 24, sample ID 2, 22 hours at 37° C., plate configuration #1, row 5 of serial dilution 4 ug/ml to 0.05 ug/ml): orange | Colour of media in each well (Table 24, sample ID 2, 22 hours at 37° C., plate configuration #1, row 6 of serial dilution 4 ug/ml to 0.05 ug/ml): yellow | Colour of media in each well (Table 24, sample ID 2, 22 hours at 37° C., plate configuration #1, row 7 of serial dilution 4 ug/ml to 0.05 ug/ml): yellow | Colour of media in each well (Table 24, sample ID 2, 22 hours at 37° C., plate configuration #1, row 8 of serial dilution 4 ug/ml to 0.05 ug/ml): yellow | MIC (clinical sample ID 1 (streptococci group D), 37° C. for 22 hours, plate configuration #1): 0.1 µg/mL | MIC (clinical sample ID 2 (streptococci group D, also coagulase positive Staph), 37° C. for 22 hours, plate configuration #1): > 4 µg/mL | MIC (clinical sample ID 4 (coagulase positive Staph), 37° C. for 22 hours, plate configuration #1): > 4 µg/mL | MIC (clinical sample ID 5 (streptococci group D), 37° C. for 23 hours, plate configuration #2): < 0.05 µg/mL | MIC (clinical sample ID 7 (coagulase positive Staph), 37° C. for 23 hours, plate configuration #2): 0.5 µg/mL | MIC (clinical sample ID 8 (coagulase negative Staph and Streptococci group D), 37° C. for 23 hours, plate configuration #2): < 0.05 µg/mL
